According to patent US20250129127A1, “Systems for Amplification of AAV Rep and Cap Proteins” (priority 2022, published 2025):
Read-outs that look alike come from different tables or passages of the source.

Tests used:
AAV capsid = assay: Capsid ELISA for total capsid titer after induction; assay type: cell-based; details: 1000 uM MSX; Fuji cell culture media lacking Gln; compared to T223 cells not exposed to MSX
Experimental: (§1) Capsid ELISA was performed to determine total capsid titer. Nuclease treatment and qPCR were performed to determine the titer of capsids encapsidating the viral genome (e.g., the payload construct). […] Fuij 7-2 cell media with 4 mM glutamax was used in the cell culture.

AAV viral genomes = assay: Titer of capsids encapsidating the viral genome by nuclease treatment and qPCR after induction with doxycycline and tamoxifen; assay type: cell-based; details: 1000 uM MSX; Fuji cell culture media lacking Gln; compared to T223 cells not exposed to MSX
Experimental: as §1

T223 cells = system: T223 cells
Text: FIG. 9 provides a schematic for GS repression/inhibition for the pathways described in FIG. 8. A GS-KO P2 cell line is independently transfected with the various Rep/Cap GS constructs (see above and FIG. 8). P3 cells are selected in cell culture media lacking glutamine (-Gln) to select for cells expressing a higher level of GS.

CS(=N)(=O)CC[C@H](N)C(=O)O (some centres unmarked) [MSX, methionine sulfoximine]
viral particles (Capsids/mL) in T223 cells (AAV capsid): increased levels
viral genomes (vg/mL) in T223 cells (AAV viral genomes): increased levels
MSX concentration from which survival is impacted (T223 cells; P3 T223 cells expressing wild type GS): ≥ 250 µM
MSX concentration from which survival is impacted (T223 cells; T223 cells expressing full length GS, selective media): ≥ 250 µM
reduction of viability (T223 cells; T223 cells, 500 uM MSX (of 50, 100, 250, 500 uM tested)): most effective in reducing viability
